pKd: −log10 of the molar value. “And” between values parts separate entries of the source, which are not always exact repeats. Equal entries are not always repeated.
Assays:
TNK1 = biological target: T1, TNK1 (Homo sapiens, UniProt Q13470); experiment: biochemical; set-up: endogenous in cells; host or cells: K562 cell extract; species or system K562 (extract); replicate k of n = 2 (each experiment ID is one independent experiment; two experiment IDs per compound); conditions: read-out: KDapp
T1 sequence (Q13470 1-666): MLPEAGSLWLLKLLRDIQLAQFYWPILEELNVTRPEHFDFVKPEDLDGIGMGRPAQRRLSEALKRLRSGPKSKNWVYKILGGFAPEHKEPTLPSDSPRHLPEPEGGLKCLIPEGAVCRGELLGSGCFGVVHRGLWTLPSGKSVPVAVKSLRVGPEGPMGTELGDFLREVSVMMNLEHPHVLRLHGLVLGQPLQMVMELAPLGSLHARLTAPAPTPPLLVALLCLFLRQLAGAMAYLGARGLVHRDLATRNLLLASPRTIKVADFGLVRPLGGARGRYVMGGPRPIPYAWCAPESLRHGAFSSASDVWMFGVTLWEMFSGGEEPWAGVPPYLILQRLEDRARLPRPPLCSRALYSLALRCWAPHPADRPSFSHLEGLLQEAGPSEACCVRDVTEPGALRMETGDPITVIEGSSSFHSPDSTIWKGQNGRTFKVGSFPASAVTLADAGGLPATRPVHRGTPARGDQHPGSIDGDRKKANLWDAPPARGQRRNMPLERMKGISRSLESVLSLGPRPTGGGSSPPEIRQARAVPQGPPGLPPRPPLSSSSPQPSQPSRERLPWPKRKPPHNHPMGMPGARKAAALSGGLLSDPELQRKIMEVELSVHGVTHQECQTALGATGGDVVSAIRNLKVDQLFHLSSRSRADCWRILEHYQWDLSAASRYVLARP

MAP3K6 = biological target: T2, MAP3K6 (Homo sapiens, UniProt O95382); experiment: biochemical; set-up: endogenous in cells; host or cells: K562 cell extract; species or system K562 (extract); replicate k of n = 2 (each experiment ID is one independent experiment; two experiment IDs per compound); conditions: read-out: KDapp
T2 sequence (O95382 1-1288): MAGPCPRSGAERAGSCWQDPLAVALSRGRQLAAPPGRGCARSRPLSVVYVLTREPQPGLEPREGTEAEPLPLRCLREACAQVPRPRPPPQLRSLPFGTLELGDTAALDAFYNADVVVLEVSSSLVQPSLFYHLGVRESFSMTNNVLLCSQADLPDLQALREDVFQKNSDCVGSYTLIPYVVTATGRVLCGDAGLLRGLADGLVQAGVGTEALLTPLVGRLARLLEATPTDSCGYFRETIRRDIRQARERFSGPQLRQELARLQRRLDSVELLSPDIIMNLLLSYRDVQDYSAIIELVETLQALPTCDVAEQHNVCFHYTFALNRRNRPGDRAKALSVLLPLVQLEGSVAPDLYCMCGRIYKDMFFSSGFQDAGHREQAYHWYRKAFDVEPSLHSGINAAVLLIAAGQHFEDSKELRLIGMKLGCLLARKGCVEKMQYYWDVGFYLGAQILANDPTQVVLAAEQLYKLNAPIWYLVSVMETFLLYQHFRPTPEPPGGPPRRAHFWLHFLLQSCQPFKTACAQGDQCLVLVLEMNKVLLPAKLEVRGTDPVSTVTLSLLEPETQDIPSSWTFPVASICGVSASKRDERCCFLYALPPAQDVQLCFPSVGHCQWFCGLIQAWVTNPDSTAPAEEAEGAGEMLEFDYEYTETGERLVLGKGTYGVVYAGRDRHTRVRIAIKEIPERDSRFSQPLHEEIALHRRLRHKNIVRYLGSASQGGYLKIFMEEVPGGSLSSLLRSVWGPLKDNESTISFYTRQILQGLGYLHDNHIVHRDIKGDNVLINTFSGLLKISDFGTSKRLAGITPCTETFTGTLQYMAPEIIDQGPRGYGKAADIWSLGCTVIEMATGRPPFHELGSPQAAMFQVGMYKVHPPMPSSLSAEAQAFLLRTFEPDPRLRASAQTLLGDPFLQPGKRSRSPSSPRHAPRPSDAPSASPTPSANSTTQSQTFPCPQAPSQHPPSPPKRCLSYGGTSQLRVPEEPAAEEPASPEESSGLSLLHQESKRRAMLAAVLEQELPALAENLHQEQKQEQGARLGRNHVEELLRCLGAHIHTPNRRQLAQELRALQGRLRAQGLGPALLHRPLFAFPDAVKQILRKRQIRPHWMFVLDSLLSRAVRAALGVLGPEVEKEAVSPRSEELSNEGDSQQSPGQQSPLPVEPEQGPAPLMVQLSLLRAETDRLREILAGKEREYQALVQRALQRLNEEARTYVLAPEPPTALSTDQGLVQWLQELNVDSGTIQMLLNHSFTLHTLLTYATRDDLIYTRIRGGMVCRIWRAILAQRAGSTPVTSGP

For CN(C)CC(O)COc1ccc(Nc2ncc([N+](=O)[O-])c(Nc3ccccc3O)n2)cc1.O=C(O)C(F)(F)F (centres unmarked) [TCMDC-141399], the pKd (TNK1) was 5.94 and 6.33.
In the case of CN1CCN(c2ccc(Nc3ncc(C#N)c(Nc4ccccc4C(N)=O)n3)cc2)CC1.Cl [TCMDC-134116], the pKd (MAP3K6) was 6.00 and 6.06.

Reference: paper PMC4774911, “Biochemical Screening of Five Protein Kinases from Plasmodium falciparum against 14,000 Cell-Active Compounds” (PLoS ONE, 2016)
